Patent US20020187944A1, “Inhibition of human immunodeficiency virus reverse transcriptase” (priority 2001, published 2002)

What was measured:
[1] = target: T1, HIV-1 reverse transcriptase (Human immunodeficiency virus type 1 group M subtype B, UniProt P04585); test: Inhibition of HIV reverse transcriptase, 3H-TTP incorporation on calf thymus DNA template; type: biochemical; conditions: for HIV RT Radioactivity: 60 minutes at 37° C.
T1 construct: 0.01 μg HIV-1 reverse transcriptase
Protocol: (§1) Inhibition of HIV reverse transcriptase (RT) was studied in a one milliliter reaction mixture containing 12.5 μmol Tris-HCl (pH 8.3), 3 μmol MgCl2, 10 μmol KCl, 2.5 μmol dithiothreitol, 0.04 μmol of each dNTP, 1 μCi ^3H-TTP (50 Ci/mmol), 10 μl of DMSO containing 0-320 μg/ml of 9-O-methyl oxime erythromycin A (EMO), and 0.01 μg HIV-1 reverse transcriptase. DNA template (0.01 μg) from calf thymus was used as the substrate in the reaction. After 60 minutes incubation at 37° C., samples from the reaction were pipetted on 3 MM filter paper discs (Whatman), which were washed 5 times in cold trichloroacetic acid (5%) containing sodium pyrophosphate (0.01 M). After drying, the discs were counted in a toluene scintillation solution using a Beckman scintillation spectrometer. Reactions with DNA-dependent DNA polymerase (DNA pol I, GibcoBRL) or DNA-dependent RNA polymerase from E. coli were carried out as described above, except that ^3H-UTP replaced ^3H-TTP where appropriate.

[2] = target: T2, DNA-dependent DNA polymerase (DNA pol I, GibcoBRL) (Escherichia coli, UniProt P00582); test: DNA-dependent DNA polymerase reaction, radiolabel incorporation; type: biochemical, E. coli
T2 construct: purchased GibcoBRL
Protocol: as §1

[3] = target: DNA-dependent RNA polymerase from E. coli (Escherichia coli, UniProt P0A8T7+P0A8V2); test: DNA-dependent RNA polymerase reaction, 3H-UTP incorporation; type: biochemical
Protocol: as §1

[4] = gastric acid; stated without a test; cited from earlier work

T2 sequence (P00582 whole entry): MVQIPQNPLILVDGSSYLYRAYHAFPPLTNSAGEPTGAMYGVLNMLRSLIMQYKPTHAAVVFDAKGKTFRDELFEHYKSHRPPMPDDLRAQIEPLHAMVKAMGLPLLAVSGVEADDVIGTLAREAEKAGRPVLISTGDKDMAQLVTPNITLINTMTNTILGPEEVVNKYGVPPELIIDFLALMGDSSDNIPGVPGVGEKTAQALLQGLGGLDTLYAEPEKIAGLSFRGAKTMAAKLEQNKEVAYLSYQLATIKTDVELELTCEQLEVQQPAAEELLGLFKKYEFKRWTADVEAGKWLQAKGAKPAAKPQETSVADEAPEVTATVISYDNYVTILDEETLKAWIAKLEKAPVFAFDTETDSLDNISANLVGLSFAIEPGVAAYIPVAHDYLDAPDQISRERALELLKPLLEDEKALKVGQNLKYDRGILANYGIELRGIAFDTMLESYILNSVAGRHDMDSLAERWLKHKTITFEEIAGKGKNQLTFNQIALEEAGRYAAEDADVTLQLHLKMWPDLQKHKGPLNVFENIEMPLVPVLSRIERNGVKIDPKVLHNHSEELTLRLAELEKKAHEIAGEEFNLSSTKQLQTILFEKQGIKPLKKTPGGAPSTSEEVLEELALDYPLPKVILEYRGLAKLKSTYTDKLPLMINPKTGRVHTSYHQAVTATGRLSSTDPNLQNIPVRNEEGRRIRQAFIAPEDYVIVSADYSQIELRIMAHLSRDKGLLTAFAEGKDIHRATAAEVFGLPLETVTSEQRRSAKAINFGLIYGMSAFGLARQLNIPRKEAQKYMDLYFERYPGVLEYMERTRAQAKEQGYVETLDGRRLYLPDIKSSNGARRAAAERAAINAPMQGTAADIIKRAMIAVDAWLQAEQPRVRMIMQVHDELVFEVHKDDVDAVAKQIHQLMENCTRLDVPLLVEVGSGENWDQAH
Sequence of DNA-dependent RNA polymerase from E. coli (P0A8V2 whole entry): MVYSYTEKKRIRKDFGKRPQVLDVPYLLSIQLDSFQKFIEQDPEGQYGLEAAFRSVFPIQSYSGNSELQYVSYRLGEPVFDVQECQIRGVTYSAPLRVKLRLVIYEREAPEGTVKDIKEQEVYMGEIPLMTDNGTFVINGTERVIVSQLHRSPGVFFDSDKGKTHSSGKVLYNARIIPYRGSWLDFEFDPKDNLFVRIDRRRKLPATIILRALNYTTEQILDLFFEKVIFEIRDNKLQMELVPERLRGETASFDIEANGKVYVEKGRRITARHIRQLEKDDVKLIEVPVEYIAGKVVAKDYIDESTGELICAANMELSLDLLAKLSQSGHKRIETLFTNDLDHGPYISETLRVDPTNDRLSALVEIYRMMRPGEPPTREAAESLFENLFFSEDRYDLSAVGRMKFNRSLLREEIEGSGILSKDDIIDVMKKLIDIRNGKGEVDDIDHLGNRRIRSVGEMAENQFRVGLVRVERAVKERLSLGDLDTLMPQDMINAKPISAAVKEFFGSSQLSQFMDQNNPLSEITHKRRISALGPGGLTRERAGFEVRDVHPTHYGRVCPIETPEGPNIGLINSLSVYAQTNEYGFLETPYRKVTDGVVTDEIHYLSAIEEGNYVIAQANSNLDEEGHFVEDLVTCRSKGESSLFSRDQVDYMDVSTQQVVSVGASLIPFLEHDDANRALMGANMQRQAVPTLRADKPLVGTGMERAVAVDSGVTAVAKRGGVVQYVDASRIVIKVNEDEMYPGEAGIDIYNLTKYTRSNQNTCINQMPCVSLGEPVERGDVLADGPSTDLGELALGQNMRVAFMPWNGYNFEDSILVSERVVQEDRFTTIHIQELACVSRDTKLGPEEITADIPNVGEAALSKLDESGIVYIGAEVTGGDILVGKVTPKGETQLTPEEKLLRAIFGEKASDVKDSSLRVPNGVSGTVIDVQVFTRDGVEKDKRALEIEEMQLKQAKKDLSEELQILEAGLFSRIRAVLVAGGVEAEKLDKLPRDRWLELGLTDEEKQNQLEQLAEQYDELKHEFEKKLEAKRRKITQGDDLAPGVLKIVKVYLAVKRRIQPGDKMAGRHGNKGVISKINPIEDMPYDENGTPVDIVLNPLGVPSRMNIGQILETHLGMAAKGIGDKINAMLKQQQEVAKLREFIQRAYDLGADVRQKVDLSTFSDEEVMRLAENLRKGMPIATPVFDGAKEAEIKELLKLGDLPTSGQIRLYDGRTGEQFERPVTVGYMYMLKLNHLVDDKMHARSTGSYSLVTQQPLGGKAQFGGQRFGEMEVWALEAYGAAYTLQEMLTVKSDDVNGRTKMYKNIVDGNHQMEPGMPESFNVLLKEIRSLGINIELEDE
Sequence of DNA-dependent RNA polymerase from E. coli (P0A7Z4 whole entry, further chain): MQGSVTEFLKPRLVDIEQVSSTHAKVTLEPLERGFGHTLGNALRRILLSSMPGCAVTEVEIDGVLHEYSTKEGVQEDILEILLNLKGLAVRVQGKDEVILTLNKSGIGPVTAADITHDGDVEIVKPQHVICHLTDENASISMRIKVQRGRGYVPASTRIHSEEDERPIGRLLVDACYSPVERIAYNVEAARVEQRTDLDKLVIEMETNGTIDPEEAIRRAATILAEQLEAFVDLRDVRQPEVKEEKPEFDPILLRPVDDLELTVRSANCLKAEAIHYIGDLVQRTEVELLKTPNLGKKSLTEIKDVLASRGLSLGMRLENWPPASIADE
Sequence of DNA-dependent RNA polymerase from E. coli (P0A800 whole entry, further chain): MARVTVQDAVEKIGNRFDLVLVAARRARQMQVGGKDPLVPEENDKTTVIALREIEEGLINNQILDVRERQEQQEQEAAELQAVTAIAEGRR
Sequence of DNA-dependent RNA polymerase from E. coli (P0A8T7 whole entry): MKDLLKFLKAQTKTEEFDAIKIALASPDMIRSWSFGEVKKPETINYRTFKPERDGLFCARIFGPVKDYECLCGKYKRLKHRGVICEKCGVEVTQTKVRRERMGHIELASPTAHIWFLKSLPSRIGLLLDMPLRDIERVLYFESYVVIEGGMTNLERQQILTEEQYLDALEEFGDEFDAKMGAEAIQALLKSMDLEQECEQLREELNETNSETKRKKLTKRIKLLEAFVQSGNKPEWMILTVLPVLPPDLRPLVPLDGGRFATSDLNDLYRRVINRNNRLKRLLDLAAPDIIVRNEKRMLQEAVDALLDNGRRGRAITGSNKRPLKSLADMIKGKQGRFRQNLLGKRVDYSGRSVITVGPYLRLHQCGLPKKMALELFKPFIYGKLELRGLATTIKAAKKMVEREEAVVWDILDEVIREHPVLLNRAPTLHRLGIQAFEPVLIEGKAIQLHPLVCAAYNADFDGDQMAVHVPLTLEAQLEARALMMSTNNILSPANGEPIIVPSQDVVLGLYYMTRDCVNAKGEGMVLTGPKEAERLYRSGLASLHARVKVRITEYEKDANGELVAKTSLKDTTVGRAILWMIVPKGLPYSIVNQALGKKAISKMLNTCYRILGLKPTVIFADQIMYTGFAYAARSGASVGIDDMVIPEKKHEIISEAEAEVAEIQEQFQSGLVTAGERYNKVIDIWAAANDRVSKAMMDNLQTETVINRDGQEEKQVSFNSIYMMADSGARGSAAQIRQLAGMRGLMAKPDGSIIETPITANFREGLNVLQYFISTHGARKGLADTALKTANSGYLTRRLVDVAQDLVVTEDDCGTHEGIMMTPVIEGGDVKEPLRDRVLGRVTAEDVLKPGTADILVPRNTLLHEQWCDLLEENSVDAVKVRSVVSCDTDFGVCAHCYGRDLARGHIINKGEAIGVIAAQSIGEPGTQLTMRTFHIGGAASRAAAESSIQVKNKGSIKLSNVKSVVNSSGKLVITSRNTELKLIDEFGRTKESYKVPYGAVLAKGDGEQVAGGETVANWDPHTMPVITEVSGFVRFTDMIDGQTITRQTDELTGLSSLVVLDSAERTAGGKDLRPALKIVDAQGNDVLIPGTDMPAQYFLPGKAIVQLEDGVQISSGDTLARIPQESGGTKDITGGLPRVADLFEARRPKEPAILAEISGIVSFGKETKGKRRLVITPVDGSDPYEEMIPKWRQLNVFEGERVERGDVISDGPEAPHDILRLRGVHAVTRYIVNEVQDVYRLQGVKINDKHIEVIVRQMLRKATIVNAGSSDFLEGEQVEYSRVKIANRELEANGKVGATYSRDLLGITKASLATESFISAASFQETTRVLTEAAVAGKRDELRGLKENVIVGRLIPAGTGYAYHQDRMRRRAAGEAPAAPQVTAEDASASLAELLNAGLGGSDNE

CC[C@H]1OC(=O)[C@H](C)[C@@H](O[C@H]2C[C@@](C)(OC)[C@@H](O)[C@H](C)O2)[C@H](C)[C@@H](O[C@@H]2O[C@H](C)C[C@H](N(C)C)[C@H]2O)[C@](C)(O)C[C@@H](C)/C(=N\OC)[C@H](C)[C@@H](O)[C@]1(C)O [EMO, 9-O-methyl oxime erythromycin A]
HIV RT % Inhibition ([1]; [EMO] 20 μg/ml): 0.8%
HIV RT Radioactivity ([1]; [EMO] 20 μg/ml): 8490 cpm
HIV RT % Inhibition ([1]; [EMO] 40 μg/ml): −0.5%
HIV RT Radioactivity ([1]; [EMO] 40 μg/ml): 8600 cpm
HIV RT % Inhibition ([1]; [EMO] 80 μg/ml): 20%
HIV RT Radioactivity ([1]; [EMO] 80 μg/ml): 6850 cpm
HIV RT % Inhibition ([1]; [EMO] 160 μg/ml): 81%
HIV RT Radioactivity ([1]; [EMO] 160 μg/ml): 1625 cpm
HIV RT % Inhibition ([1]; [EMO] 320 μg/ml): 85%
HIV RT Radioactivity ([1]; [EMO] 320 μg/ml): 1287 cpm
DNA-dependent DNA polymerase % Inhibition ([2]; [EMO] 80 μg/ml): −2%
DNA-dependent DNA polymerase Radioactivity ([2]; [EMO] 80 μg/ml): 12,800 cpm
DNA-dependent DNA polymerase % Inhibition ([2]; [EMO] 160 μg/ml): 1%
DNA-dependent DNA polymerase Radioactivity ([2]; [EMO] 160 μg/ml): 12,400 cpm
DNA-dependent DNA polymerase % Inhibition ([2]; [EMO] 320 μg/ml): 0%
DNA-dependent DNA polymerase Radioactivity ([2]; [EMO] 320 μg/ml): 12,600 cpm
DNA-dependent RNA polymerase % Inhibition ([3]; [EMO] 80 μg/ml): −0.2%
DNA-dependent RNA polymerase Radioactivity ([3]; [EMO] 80 μg/ml): 33,000 cpm
DNA-dependent RNA polymerase % Inhibition ([3]; [EMO] 160 μg/ml): −1%
DNA-dependent RNA polymerase Radioactivity ([3]; [EMO] 160 μg/ml): 32,800 cpm
DNA-dependent RNA polymerase % Inhibition ([3]; [EMO] 320 μg/ml): 0.5%
DNA-dependent RNA polymerase Radioactivity ([3]; [EMO] 320 μg/ml): 32,400 cpm

CC[C@H]1OC(=O)[C@H](C)[C@@H](O[C@H]2C[C@@](C)(OC)[C@@H](O)[C@H](C)O2)[C@H](C)[C@@H](O[C@@H]2O[C@H](C)C[C@H](N(C)C)[C@H]2O)[C@](C)(O)C[C@@H](C)C(=O)[C@H](C)[C@@H](O)[C@]1(C)O [Erythromycin A, erythromycin A]
acid stability [4]: acid labile
